Experimental data published in ChEMBL document CHEMBL1147101, “Development and persistence of antimicrobial resistance in Pseudomonas aeruginosa: a longitudinal observation in mechanically ventilated patients” (Antimicrob Agents Chemother, 2007).
Calls of active or inactive are those of the source. The rule behind the calls is not given here.

Assays:
Format in all cases: functional, organism-based
Details in all cases: Trachea
Pseudomonas aeruginosa [1] = test: Antimicrobial activity against Pseudomonas aeruginosa 65.38-3 tracheal isolates from mechanically ventilated tuberculosis patient
Pseudomonas aeruginosa [2] = test: Antimicrobial activity against Pseudomonas aeruginosa 1A9 tracheal isolates from mechanically ventilated tuberculosis patient
Pseudomonas aeruginosa [3] = test: Antimicrobial activity against Pseudomonas aeruginosa 1B9 tracheal isolates from mechanically ventilated tuberculosis patient
Pseudomonas aeruginosa [4] = test: Antimicrobial activity against Pseudomonas aeruginosa 2C1 tracheal isolates from mechanically ventilated tuberculosis patient
Pseudomonas aeruginosa [5] = test: Antimicrobial activity against Pseudomonas aeruginosa 2A2 tracheal isolates from mechanically ventilated tuberculosis patient
Pseudomonas aeruginosa [6] = test: Antimicrobial activity against Pseudomonas aeruginosa 2C2 tracheal isolates from mechanically ventilated tuberculosis patient
Pseudomonas aeruginosa [7] = test: Antimicrobial activity against Pseudomonas aeruginosa 2A3 tracheal isolates from mechanically ventilated tuberculosis patient
Pseudomonas aeruginosa [8] = test: Antimicrobial activity against Pseudomonas aeruginosa 2A5 tracheal isolates from mechanically ventilated tuberculosis patient
Pseudomonas aeruginosa [9] = test: Antimicrobial activity against Pseudomonas aeruginosa 2B5 tracheal isolates from mechanically ventilated tuberculosis patient
Pseudomonas aeruginosa [10] = test: Antimicrobial activity against Pseudomonas aeruginosa 2A6 tracheal isolates from mechanically ventilated tuberculosis patient
Pseudomonas aeruginosa [11] = test: Antimicrobial activity against Pseudomonas aeruginosa 2F6 tracheal isolates from mechanically ventilated tuberculosis patient
Pseudomonas aeruginosa [12] = test: Antimicrobial activity against Pseudomonas aeruginosa 2A7 tracheal isolates from mechanically ventilated tuberculosis patient
Pseudomonas aeruginosa [13] = test: Antimicrobial activity against Pseudomonas aeruginosa 2A9 tracheal isolates from mechanically ventilated tuberculosis patient
Pseudomonas aeruginosa [14] = test: Antimicrobial activity against Pseudomonas aeruginosa 3B1 tracheal isolates from mechanically ventilated tuberculosis patient
Pseudomonas aeruginosa [15] = test: Antimicrobial activity against Pseudomonas aeruginosa 65.68-1 tracheal isolates from mechanically ventilated tuberculosis patient
Pseudomonas aeruginosa [16] = test: Antimicrobial activity against Pseudomonas aeruginosa 65.68-2 tracheal isolates from mechanically ventilated tuberculosis patient
Pseudomonas aeruginosa [17] = test: Antimicrobial activity against Pseudomonas aeruginosa 65.68-3 tracheal isolates from mechanically ventilated tuberculosis patient
Pseudomonas aeruginosa [18] = test: Antimicrobial activity against Pseudomonas aeruginosa 65.68-4 tracheal isolates from mechanically ventilated tuberculosis patient
Pseudomonas aeruginosa [19] = test: Antimicrobial activity against Pseudomonas aeruginosa P21.21 tracheal isolates from mechanically ventilated tuberculosis patient
Pseudomonas aeruginosa [20] = test: Antimicrobial activity against Pseudomonas aeruginosa 65.18-1 tracheal isolates from mechanically ventilated tuberculosis patient
Pseudomonas aeruginosa [21] = test: Antimicrobial activity against Pseudomonas aeruginosa 65.18-2 tracheal isolates from mechanically ventilated tuberculosis patient
Pseudomonas aeruginosa [22] = test: Antimicrobial activity against Pseudomonas aeruginosa 65.18-3 tracheal isolates from mechanically ventilated tuberculosis patient
Pseudomonas aeruginosa [23] = test: Antimicrobial activity against Pseudomonas aeruginosa 65.18-4 tracheal isolates from mechanically ventilated tuberculosis patient
Pseudomonas aeruginosa [24] = test: Antimicrobial activity against Pseudomonas aeruginosa P21.23 tracheal isolates from mechanically ventilated tuberculosis patient
Pseudomonas aeruginosa [25] = test: Antimicrobial activity against Pseudomonas aeruginosa IA5 tracheal isolates from mechanically ventilated tuberculosis patient
Pseudomonas aeruginosa [26] = test: Antimicrobial activity against Pseudomonas aeruginosa IC7 tracheal isolates from mechanically ventilated tuberculosis patient
Pseudomonas aeruginosa [27] = test: Antimicrobial activity against Pseudomonas aeruginosa 65.33-1 tracheal isolates from mechanically ventilated tuberculosis patient
Pseudomonas aeruginosa [28] = test: Antimicrobial activity against Pseudomonas aeruginosa 65.33-4 tracheal isolates from mechanically ventilated tuberculosis patient
Pseudomonas aeruginosa [29] = test: Antimicrobial activity against Pseudomonas aeruginosa 65.38-1 tracheal isolates from mechanically ventilated tuberculosis patient
Pseudomonas aeruginosa [30] = test: Antimicrobial activity against Pseudomonas aeruginosa 65.38-4 tracheal isolates from mechanically ventilated tuberculosis patient
Pseudomonas aeruginosa [31] = test: Antimicrobial activity against Pseudomonas aeruginosa 2A1 tracheal isolates from mechanically ventilated tuberculosis patient
Pseudomonas aeruginosa [32] = test: Antimicrobial activity against Pseudomonas aeruginosa 65.36-4 tracheal isolates from mechanically ventilated tuberculosis patient
Pseudomonas aeruginosa [33] = test: Antimicrobial activity against Pseudomonas aeruginosa 65.38-2 tracheal isolates from mechanically ventilated tuberculosis patient
Pseudomonas aeruginosa [34] = test: Antimicrobial activity against Pseudomonas aeruginosa 65.33-2 tracheal isolates from mechanically ventilated tuberculosis patient
Pseudomonas aeruginosa [35] = test: Antimicrobial activity against Pseudomonas aeruginosa 65.33-3 tracheal isolates from mechanically ventilated tuberculosis patient
Pseudomonas aeruginosa [36] = test: Antimicrobial activity against Pseudomonas aeruginosa 65.36-3 tracheal isolates from mechanically ventilated tuberculosis patient
Pseudomonas aeruginosa [37] = test: Antimicrobial activity against Pseudomonas aeruginosa 1C9 tracheal isolates from mechanically ventilated tuberculosis patient
Pseudomonas aeruginosa [38] = test: Antimicrobial activity against Pseudomonas aeruginosa 15H5 tracheal isolates from mechanically ventilated chronic respiratory insufficiency patient
Pseudomonas aeruginosa [39] = test: Antimicrobial activity against Pseudomonas aeruginosa 65.36-1 tracheal isolates from mechanically ventilated tuberculosis patient
Pseudomonas aeruginosa [40] = test: Antimicrobial activity against Pseudomonas aeruginosa 65.36-2 tracheal isolates from mechanically ventilated tuberculosis patient
Pseudomonas aeruginosa [41] = test: Antimicrobial activity against Pseudomonas aeruginosa ID7 tracheal isolates from mechanically ventilated tuberculosis patient

`C[C@H]1[C@H](NC(=O)/C(=N\OC(C)(C)C(=O)O)c2csc(N)n2)C(=O)N1S(=O)(=O)O` was tested, and the Activity (Pseudomonas aeruginosa [1]) was “inactive”, the Activity (Pseudomonas aeruginosa [2]) was “inactive” and the Activity (Pseudomonas aeruginosa [3]) was “inactive”. The Activity (Pseudomonas aeruginosa [4]) was “inactive”, the Activity (Pseudomonas aeruginosa [5]) was “Active” and the Activity (Pseudomonas aeruginosa [6]) was “Active”. For the same compound, the Activity (Pseudomonas aeruginosa [7]) was “Active”, the Activity (Pseudomonas aeruginosa [8]) was “Active” and the Activity (Pseudomonas aeruginosa [9]) was “Active”. For the same compound, the Activity (Pseudomonas aeruginosa [10]) was “inactive”, the Activity (Pseudomonas aeruginosa [11]) was “inactive” and the Activity (Pseudomonas aeruginosa [12]) was “inactive”. For the same compound, the Activity (Pseudomonas aeruginosa [13]) was “inactive”, the Activity (Pseudomonas aeruginosa [14]) was “Active” and the Activity (Pseudomonas aeruginosa [15]) was “Active”. For the same compound, the Activity (Pseudomonas aeruginosa [16]) was “Active”, the Activity (Pseudomonas aeruginosa [17]) was “Active” and the Activity (Pseudomonas aeruginosa [18]) was “Active”. For the same compound, the Activity (Pseudomonas aeruginosa [19]) was “Active”, the Activity (Pseudomonas aeruginosa [20]) was “Active” and the Activity (Pseudomonas aeruginosa [21]) was “Active”. For the same compound, the Activity (Pseudomonas aeruginosa [22]) was “Active”, the Activity (Pseudomonas aeruginosa [23]) was “Active” and the Activity (Pseudomonas aeruginosa [24]) was “Active”. The Activity (Pseudomonas aeruginosa [25]) was “Active”, the Activity (Pseudomonas aeruginosa [26]) was “Active” and the Activity (Pseudomonas aeruginosa [27]) was “Active”. For the same compound, the Activity (Pseudomonas aeruginosa [28]) was “Active” and the Activity (Pseudomonas aeruginosa [29]) was “inactive”.

For `CCN[C@@H]1C[C@H](N)[C@@H](O[C@H]2OC(CN)=CC[C@H]2N)[C@H](O)[C@H]1O[C@H]1OC[C@](C)(O)[C@H](NC)[C@H]1O`, the Activity (Pseudomonas aeruginosa [1]) was “inactive”, the Activity (Pseudomonas aeruginosa [30]) was “inactive” and the Activity (Pseudomonas aeruginosa [2]) was “Active”. For the same compound, the Activity (Pseudomonas aeruginosa [3]) was “inactive”, the Activity (Pseudomonas aeruginosa [31]) was “Active” and the Activity (Pseudomonas aeruginosa [4]) was “inactive”. For the same compound, the Activity (Pseudomonas aeruginosa [5]) was “Active”, the Activity (Pseudomonas aeruginosa [6]) was “Active” and the Activity (Pseudomonas aeruginosa [7]) was “Active”. The Activity (Pseudomonas aeruginosa [8]) was “Active”, the Activity (Pseudomonas aeruginosa [11]) was “inactive” and the Activity (Pseudomonas aeruginosa [12]) was “inactive”. For the same compound, the Activity (Pseudomonas aeruginosa [13]) was “inactive”, the Activity (Pseudomonas aeruginosa [14]) was “Active” and the Activity (Pseudomonas aeruginosa [15]) was “Active”. For the same compound, the Activity (Pseudomonas aeruginosa [16]) was “inactive”, the Activity (Pseudomonas aeruginosa [19]) was “Active” and the Activity (Pseudomonas aeruginosa [21]) was “Active”. For the same compound, the Activity (Pseudomonas aeruginosa [22]) was “Active”, the Activity (Pseudomonas aeruginosa [23]) was “Active” and the Activity (Pseudomonas aeruginosa [24]) was “Active”. For the same compound, the Activity (Pseudomonas aeruginosa [25]) was “Active”, the Activity (Pseudomonas aeruginosa [26]) was “Active” and the Activity (Pseudomonas aeruginosa [27]) was “Active”. For the same compound, the Activity (Pseudomonas aeruginosa [32]) was “inactive”, the Activity (Pseudomonas aeruginosa [29]) was “inactive” and the Activity (Pseudomonas aeruginosa [33]) was “inactive”.

With `C[C@@H](O)[C@H]1C(=O)N2C(C(=O)O)=C(S[C@@H]3CN[C@H](C(=O)N(C)C)C3)[C@H](C)[C@H]12` the Activity (Pseudomonas aeruginosa [1]) was “inactive”, the Activity (Pseudomonas aeruginosa [30]) was “inactive” and the Activity (Pseudomonas aeruginosa [2]) was “inactive”. For the same compound, the Activity (Pseudomonas aeruginosa [3]) was “inactive”, the Activity (Pseudomonas aeruginosa [31]) was “inactive” and the Activity (Pseudomonas aeruginosa [4]) was “inactive”. The Activity (Pseudomonas aeruginosa [5]) was “inactive”, the Activity (Pseudomonas aeruginosa [7]) was “Active” and the Activity (Pseudomonas aeruginosa [8]) was “Active”. The Activity (Pseudomonas aeruginosa [10]) was “inactive”, the Activity (Pseudomonas aeruginosa [11]) was “inactive” and the Activity (Pseudomonas aeruginosa [12]) was “inactive”. For the same compound, the Activity (Pseudomonas aeruginosa [13]) was “inactive”, the Activity (Pseudomonas aeruginosa [14]) was “Active” and the Activity (Pseudomonas aeruginosa [15]) was “inactive”. For the same compound, the Activity (Pseudomonas aeruginosa [16]) was “inactive”, the Activity (Pseudomonas aeruginosa [17]) was “inactive” and the Activity (Pseudomonas aeruginosa [18]) was “inactive”. The Activity (Pseudomonas aeruginosa [19]) was “Active”, the Activity (Pseudomonas aeruginosa [20]) was “Active” and the Activity (Pseudomonas aeruginosa [22]) was “Active”. The Activity (Pseudomonas aeruginosa [24]) was “Active”, the Activity (Pseudomonas aeruginosa [25]) was “Active” and the Activity (Pseudomonas aeruginosa [26]) was “Active”. The Activity (Pseudomonas aeruginosa [34]) was “inactive”, the Activity (Pseudomonas aeruginosa [35]) was “inactive” and the Activity (Pseudomonas aeruginosa [36]) was “inactive”. The Activity (Pseudomonas aeruginosa [32]) was “inactive”, the Activity (Pseudomonas aeruginosa [29]) was “inactive” and the Activity (Pseudomonas aeruginosa [33]) was “inactive”.

In the case of `NC[C@H]1O[C@H](O[C@H]2[C@H](O)[C@@H](O[C@H]3O[C@H](CO)[C@@H](O)[C@H](N)[C@H]3O)[C@H](N)C[C@@H]2N)[C@H](N)C[C@@H]1O`, the Activity (Pseudomonas aeruginosa [1]) is reported as “Active”, the Activity (Pseudomonas aeruginosa [30]) is reported as “Active” and the Activity (Pseudomonas aeruginosa [2]) is reported as “Active”. For the same compound, the Activity (Pseudomonas aeruginosa [37]) was “Active”, the Activity (Pseudomonas aeruginosa [31]) was “Active” and the Activity (Pseudomonas aeruginosa [4]) was “Active”. The Activity (Pseudomonas aeruginosa [5]) was “Active”, the Activity (Pseudomonas aeruginosa [6]) was “Active” and the Activity (Pseudomonas aeruginosa [7]) was “Active”. For the same compound, the Activity (Pseudomonas aeruginosa [8]) was “Active”, the Activity (Pseudomonas aeruginosa [9]) was “Active” and the Activity (Pseudomonas aeruginosa [10]) was “Active”. For the same compound, the Activity (Pseudomonas aeruginosa [11]) was “Active”, the Activity (Pseudomonas aeruginosa [12]) was “Active” and the Activity (Pseudomonas aeruginosa [13]) was “Active”. For the same compound, the Activity (Pseudomonas aeruginosa [14]) was “Active”, the Activity (Pseudomonas aeruginosa [15]) was “Active” and the Activity (Pseudomonas aeruginosa [16]) was “Active”. The Activity (Pseudomonas aeruginosa [17]) was “Active”, the Activity (Pseudomonas aeruginosa [18]) was “Active” and the Activity (Pseudomonas aeruginosa [38]) was “Active”. The Activity (Pseudomonas aeruginosa [19]) was “Active”, the Activity (Pseudomonas aeruginosa [20]) was “Active” and the Activity (Pseudomonas aeruginosa [21]) was “Active”. For the same compound, the Activity (Pseudomonas aeruginosa [22]) was “Active”, the Activity (Pseudomonas aeruginosa [23]) was “Active” and the Activity (Pseudomonas aeruginosa [24]) was “Active”. For the same compound, the Activity (Pseudomonas aeruginosa [25]) was “Active”, the Activity (Pseudomonas aeruginosa [26]) was “Active” and the Activity (Pseudomonas aeruginosa [27]) was “Active”. For the same compound, the Activity (Pseudomonas aeruginosa [34]) was “Active”, the Activity (Pseudomonas aeruginosa [35]) was “Active” and the Activity (Pseudomonas aeruginosa [28]) was “Active”. For the same compound, the Activity (Pseudomonas aeruginosa [39]) was “Active”, the Activity (Pseudomonas aeruginosa [40]) was “Active” and the Activity (Pseudomonas aeruginosa [36]) was “Active”. For the same compound, the Activity (Pseudomonas aeruginosa [32]) was “Active” and the Activity (Pseudomonas aeruginosa [33]) was “Active”.

For `CCN1CCN(C(=O)N[C@@H](C(=O)N[C@@H]2C(=O)N3[C@@H]2SC(C)(C)[C@@H]3C(=O)O)c2ccccc2)C(=O)C1=O`, the Activity (Pseudomonas aeruginosa [1]) was “inactive”, the Activity (Pseudomonas aeruginosa [30]) was “Active” and the Activity (Pseudomonas aeruginosa [2]) was “inactive”. The Activity (Pseudomonas aeruginosa [3]) was “inactive”, the Activity (Pseudomonas aeruginosa [31]) was “inactive” and the Activity (Pseudomonas aeruginosa [4]) was “inactive”. The Activity (Pseudomonas aeruginosa [5]) was “Active”, the Activity (Pseudomonas aeruginosa [6]) was “Active” and the Activity (Pseudomonas aeruginosa [7]) was “Active”. For the same compound, the Activity (Pseudomonas aeruginosa [8]) was “Active”, the Activity (Pseudomonas aeruginosa [9]) was “Active” and the Activity (Pseudomonas aeruginosa [10]) was “inactive”. For the same compound, the Activity (Pseudomonas aeruginosa [11]) was “inactive”, the Activity (Pseudomonas aeruginosa [12]) was “inactive” and the Activity (Pseudomonas aeruginosa [13]) was “inactive”. The Activity (Pseudomonas aeruginosa [14]) was “Active”, the Activity (Pseudomonas aeruginosa [15]) was “Active” and the Activity (Pseudomonas aeruginosa [16]) was “Active”. For the same compound, the Activity (Pseudomonas aeruginosa [17]) was “Active”, the Activity (Pseudomonas aeruginosa [18]) was “Active” and the Activity (Pseudomonas aeruginosa [19]) was “Active”. For the same compound, the Activity (Pseudomonas aeruginosa [20]) was “Active”, the Activity (Pseudomonas aeruginosa [21]) was “Active” and the Activity (Pseudomonas aeruginosa [22]) was “Active”. For the same compound, the Activity (Pseudomonas aeruginosa [23]) was “Active”, the Activity (Pseudomonas aeruginosa [24]) was “Active” and the Activity (Pseudomonas aeruginosa [25]) was “Active”. The Activity (Pseudomonas aeruginosa [26]) was “Active”, the Activity (Pseudomonas aeruginosa [41]) was “Active” and the Activity (Pseudomonas aeruginosa [27]) was “Active”. The Activity (Pseudomonas aeruginosa [34]) was “Active”, the Activity (Pseudomonas aeruginosa [35]) was “inactive” and the Activity (Pseudomonas aeruginosa [28]) was “Active”. The Activity (Pseudomonas aeruginosa [39]) was “Active”, the Activity (Pseudomonas aeruginosa [40]) was “Active” and the Activity (Pseudomonas aeruginosa [36]) was “Active”. The Activity (Pseudomonas aeruginosa [32]) was “inactive”, the Activity (Pseudomonas aeruginosa [29]) was “inactive” and the Activity (Pseudomonas aeruginosa [33]) was “inactive”.
